In brackets after ≈: the same amount, converted by molar mass.
Legend:
[1] = Permeability from apical to basolateral side in human Caco2 cells at 1 uM; assay type: ADME, cell-based; details: Caco-2, read-out: permeability
[2] = Tmax in po dosed cynomolgus monkey; assay type: ADME, organism-based, Macaca fascicularis; details: in vivo
[3] = Tmax in po dosed rat; assay type: ADME, organism-based; details: in vivo
[4] = Stability in dog liver microsomes; assay type: ADME, Canis lupus familiaris
[5] = Permeability from apical to basolateral side in human Caco2 cells at 10 uM; assay type: ADME, cell-based; details: Caco-2, read-out: permeability
[6] = Volume of distribution at steady state in iv dosed rat; assay type: ADME, organism-based; details: in vivo, read-out: Vdss
[7] = AUC (0 to infinity) in po dosed cynomolgus monkey; assay type: ADME, organism-based, Macaca fascicularis; design: time infinity, route oral; details: in vivo
[8] = Permeability from basolateral to apical side in human Caco2 cells at 10 uM; assay type: ADME, cell-based; details: Caco-2, read-out: permeability
[9] = Stability in rat liver microsomes; assay type: ADME
[10] = Clearance in iv dosed rat; assay type: ADME, organism-based; details: in vivo
[11] = Oral bioavailability in rat; assay type: ADME, organism-based; details: in vivo
[12] = Aqueous solubility of the compound in PBS at pH 7.6; assay type: physicochemical
[13] = AUC (0 to infinity) in po dosed rat; assay type: ADME, organism-based; design: time infinity, route oral; details: in vivo
[14] = Cmax in po dosed cynomolgus monkey; assay type: ADME, organism-based, Macaca fascicularis; design: route oral; details: in vivo
[15] = Oral bioavailability in cynomolgus monkey; assay type: ADME, organism-based, Macaca fascicularis; details: in vivo
[16] = Aqueous solubility of the compound in HCL at pH 2.2; assay type: physicochemical
[17] = Stability in human liver microsomes; assay type: ADME
[18] = Lipophilicity, logD of the compound; assay type: physicochemical; details: octanol/water
[19] = Permeability from basolateral to apical side in human Caco2 cells at 1 uM; assay type: ADME, cell-based; details: Caco-2, read-out: permeability
[20] = Cmax in po dosed rat; assay type: ADME, organism-based; design: route oral; details: in vivo
[21] = Volume of distribution at steady state in iv dosed cynomolgus monkey; assay type: ADME, organism-based, Macaca fascicularis; details: in vivo, read-out: Vdss
[22] = Clearance in iv dosed cynomolgus monkey; assay type: ADME, organism-based, Macaca fascicularis; details: in vivo

Papp A→B at 1 µM [1]: 412 nm/s
Tmax [2]: 6 h
Tmax [3]: 2.7 h
half-life [4]: 1.17 h
Papp A→B at 10 µM [5]: 278 nm/s
Vd [6]: 3.4 L
AUC(0-inf) [7]: 76.1 µM·h
Papp B→A at 10 µM [8]: 352 nm/s
half-life [9]: 3.82 h
clearance [10]: 0.193 L/h/kg
bioavailability [11]: 105%
solubility [12]: 4.7 µM (≈ 1.63 µg/mL)
AUC(0-inf) [13]: 5.7 µM·h
Cmax [14]: 1.48 µM
bioavailability [15]: 83%
solubility [16]: 6 µM (≈ 2.08 µg/mL)
half-life [17]: > 6.58 h
logD [18]: 3.38
Papp B→A at 1 µM [19]: 440 nm/s
Cmax [20]: 0.397 µM
Vd [21]: 0.6 L
clearance [22]: 0.013 L/h/kg
SMILES: FC(F)(F)Oc1ccc(-c2ccc3nnc(C(F)(F)F)n3c2)cc1
